Patent US20110039763A1, “TARGETED ANTIMICROBIAL MOIETIES” (C3 JIAN, INC., priority 2009, published 2011)

Assays:
microorganisms [1] = assay: Peptide activities: targeting/binding, antimicrobial, growth or phenotype altering (Tables 7, 8); type: cell-based; settings: peptides having multiple activities
microorganisms [2] = assay: Morphology, biofilm and growth disrupting peptides (Table 5); type: cell-based; parameters: key: A: Peptide aggregates; B: Less hyphal formation; Clumps; Diffuse clumps and small polyps; F: Diffuse growth; H: Thin; I: Growth inhibition; Microcolony formation; Rippled; Small polyps; Thick; W: Halo formation on top, microlonies on bottom
Text: In certain embodiments peptides that induce alterations in phenotype or other biological activities can also be used as antimicrobial effector moieties.

| Molecule | Activities (microorganisms [1]) | Organism, effect (microorganisms [2]; B. subtilis) | Organism, effect (microorganisms [2]; C. jeikeium) | Organism, effect (microorganisms [2]; C. jejuni) | Organism, effect (microorganisms [2]; M. luteus) | Organism, effect (microorganisms [2]; MRSA) | Organism, effect (microorganisms [2]; S. epidermidis) | Organism, effect (microorganisms [2]; S. pneumoniae) | Organism, effect (microorganisms [2]; E. faecalis) | Organism, effect (microorganisms [2]; E. coli) | Organism, effect (microorganisms [2]; P. aeruginosa) | Organism, effect (microorganisms [2]; P. mirabilis) | Organism, effect (microorganisms [2]; S. mutans) | Organism, effect (microorganisms [2]; C. albicans) |
| --- | --- | --- | --- | --- | --- | --- | --- | --- | --- | --- | --- | --- | --- | --- |
| PF-548: peptide having multiple activities (ARPIADLIHFNSTTVTASGDVYYGPG; Peptide with targeting and/or antimicrobial activity) | G B | B. subtilis (C) | C. jeikeium (R) | C. jejuni (D) | M. luteus (A) | MRSA (M) | S. epidermidis (M) | S. pneumoniae (D) |  |  |  |  |  |  |
| PF-556: peptide having multiple activities (SLQIRMNTLTAAKASIEAA; Peptide with targeting and/or antimicrobial activity) | G B | B. subtilis (C) | C. jeikeium (D) | C. jejuni (R) | M. luteus (A) | MRSA (M) | S. epidermidis (A) | S. pneumoniae (D) | E. faecalis (A) |  |  |  |  |  |
| PF-562: peptide having multiple activities (TPEQWLERSTVVVTGLLNRK; Peptide with targeting and/or antimicrobial activity) | G B |  |  | C. jejuni (R) | M. luteus (R) | MRSA (M) | S. epidermidis (A) | S. pneumoniae (D) |  |  |  |  |  |  |
| PF-577: peptide having multiple activities (PFETRESFRVPVIGILGGWDYFMHP; Peptide with targeting and/or antimicrobial activity) | G B |  |  | C. jejuni (R) |  | MRSA (M) | S. epidermidis (A) | S. pneumoniae (R) | E. faecalis (A) | E. coli (A) | P. aeruginosa (A) |  |  |  |
| PF-578: peptide having multiple activities (QKANLRIGFTYTSDSNVCNLTFALLGSK; Peptide with targeting and/or antimicrobial activity) | G B |  |  |  | M. luteus (C) | MRSA (C) | S. epidermidis (D) | S. pneumoniae (D) |  | E. coli (C) |  | P. mirabilis (C) | S. mutans (D) |  |
| PF-581: peptide having multiple activities (WTARARR; Peptide with targeting and/or antimicrobial activity) | G B |  |  | C. jejuni (A) |  | MRSA (A) |  | S. pneumoniae (A) | E. faecalis (A) |  |  |  |  |  |
| PF-586: peptide having multiple activities (chain 1 FFNQANYFFKEF; chain 2 FFNQANYFFKEF; Peptide with targeting and/or antimicrobial activity) | G B |  |  | C. jejuni (D) |  | MRSA (D) | S. epidermidis (C) | S. pneumoniae (D) | E. faecalis (D) | E. coli (C) |  |  |  |  |
| PF-592: peptide having multiple activities (chain 1 IMKNYKYFKLFIVKYALF; chain 2 IMKNYKYFKLFIVKYALF; Peptide with targeting and/or antimicrobial activity) | G B |  |  | C. jejuni (S) |  | MRSA (D) | S. epidermidis (M) | S. pneumoniae (D) | E. faecalis (D) | E. coli (C) |  |  |  |  |
| PF-595: peptide having multiple activities (chain 1 LQNKIYELLYIKERSKLCS; chain 2 LQNKIYELLYIKERSKLCS; Peptide with targeting and/or antimicrobial activity) | G B |  |  | C. jejuni (D) |  | MRSA (D) | S. epidermidis (C) | S. pneumoniae (R) | E. faecalis (D) | E. coli (C) |  |  |  |  |
| PF-596: peptide having multiple activities (chain 1 SKMWDKILTILILILELIRELIKL; chain 2 SKMWDKILTILILILELIRELIKL; Peptide with targeting and/or antimicrobial activity) | G B |  |  | C. jejuni (D) |  | MRSA (D) | S. epidermidis (D) | S. pneumoniae (D) | E. faecalis (D) | E. coli (C) |  |  |  |  |
| PF-605: peptide having multiple activities (chain 1 HYRWNTQWWKY; chain 2 HYRWNTQWWKY; Peptide with targeting and/or antimicrobial activity) | G B |  |  | C. jejuni (R) |  | MRSA (C) | S. epidermidis (R) | S. pneumoniae (D) | E. faecalis (R) | E. coli (C) | P. aeruginosa (A) |  |  | C. albicans (B) |
| PF-610: peptide having multiple activities (chain 1 VFLKLKTSKIDLASIIFYP; chain 2 VFLKLKTSKIDLASIIFYP; Peptide with targeting and/or antimicrobial activity) | G B |  |  | C. jejuni (D) |  | MRSA (D) | S. epidermidis (C) | S. pneumoniae (D) | E. faecalis (D) | E. coli (C) |  |  |  |  |
| PF-615: peptide having multiple activities (chain 1 FLNRFIFYIFTVKTKSALIKNLFLD; chain 2 FLNRFIFYIFTVKTKSALIKNLFLD; Peptide with targeting and/or antimicrobial activity) | G B |  |  | C. jejuni (D) |  | MRSA (D) | S. epidermidis (D) | S. pneumoniae (D) | E. faecalis (D) | E. coli (C) |  |  |  |  |
| PF-619: peptide having multiple activities (chain 1 WSRVPGHSDTGWKVWHRW; chain 2 WSRVPGHSDTGWKVWHRW; Peptide with targeting and/or antimicrobial activity) | G B |  |  |  |  | MRSA (M) | S. epidermidis (M) | S. pneumoniae (C) |  | E. coli (C) |  |  |  |  |
| PF-630: peptide having multiple activities (chain 1 IPATPIIHS; chain 2 IPATPIIHS; Peptide with targeting and/or antimicrobial activity) | G B |  |  |  |  | MRSA (M) |  |  |  |  |  |  |  |  |
| PF-634: peptide having multiple activities (chain 1 MPKARPVNHNKKKSKITIKSNFTLFYMFNP; chain 2 MPKARPVNHNKKKSKITIKSNFTLFYMFNP; Peptide with targeting and/or antimicrobial activity) | G B |  |  |  | M. luteus (C) | MRSA (D) | S. epidermidis (D) | S. pneumoniae (D) |  | E. coli (C) |  | P. mirabilis (C) | S. mutans (D) |  |
| PF-770: peptide having multiple activities (GVGIGFIMMGVVGYAVKLVHIPIRYLIV; Peptide with targeting and/or antimicrobial activity) | G B |  |  |  | M. luteus (C) | MRSA (D) | S. epidermidis (D) | S. pneumoniae (C) |  | E. coli (C) |  | P. mirabilis (C) | S. mutans (D) |  |
| PF-612: peptide having multiple activities (Peptide with targeting and/or antimicrobial activity) chain 1: GTTLKYGLERQLKIDIHPEITIINLNGGADEFAKL chain 2: GTTLKYGLERQLKIDIHPEITIINLNGGADEFAKL | G B |  |  |  | M. luteus (A) | MRSA (C) | S. epidermidis (C) | S. pneumoniae (C) |  | E. coli (C) |  | P. mirabilis (C) | S. mutans (F) |  |
| PF-S003: peptide having multiple activities (Peptide with targeting and/or antimicrobial activity) chain 1: ALALLKQDLLNFEGRGRIITSTYLQFNEGCVP chain 2: ALALLKQDLLNFEGRGRIITSTYLQFNEGCVP | G B | B. subtilis (A) | C. jeikeium (D) | C. jejuni (D) | M. luteus (R) | MRSA (M) | S. epidermidis (R) | S. pneumoniae (D) |  |  | P. aeruginosa (A) |  |  | C. albicans (A) |
